Among the data in PubChem BioAssay AID1963833 (Molecular Pharmacology Branch, DTP, NCI, 2024) are IC50 and viability, T/C values, retold here.

SMILES strings stand for the structures. “And” between values parts separate entries of the source, which are not always exact repeats. Identical values can stand only once.

For the test, the system named is 883617-216-R-J1-PDC complex spheroid viability. As to the kind of experiment: Anticancer human tumor 883617-216-R-J1-PDC patient-derived bladder carcinoma cell line growth inhibition [POLQ]. The note with it: for viability, T/C: stronger effect = lower value. The method, then:
Multicellular complex tumor spheroid response to Polymerase (POL) inhibitors (novobiocin, ART-558, RP6685) in combination with a variety of drugs and investigational agents in selected tumor cell lines
The POL inhibitors (novobiocin, ART-558, and RP6685) were evaluated both individually and in combination with standard of care and investigational anticancer small molecules within a complex spheroid model of solid tumors. . Complex spheroids include a stromal component modeled by human endothelial cells (HUVEC) and fibroblasts modeled by human mesenchymal stem cells (MSCs). The concentration ranges selected for each drug and investigational agent were based upon clinically achievable concentrations if the clinical Cmax of the agent was known.
Compounds. The drugs and investigational agents: novobiocin (NSC847541), ART-558 (NSC835418), RP-6685 (NSC848927), peposertib (NSC802822), ceralasertib (NSC780249), elimusertib (NSC800525), camonsertib (NSC841442), AZD-1390 (NSC803789), olaparib (NSC753686), talazoparib (NSC767125), rucaparib (NSC756644), sotorasib (NSC818433), MRTX-1133 (NSC836407), SN-38 (NSC673596), topotecan (NSC609699), epotoside (NSC141540), doxorubicin (NSC123127), gemcitabine (NSC613327), 5-fluorouracil (NSC19893), paclitaxel (NSC125973), vemurafenib (NSC761431), MSA-2 (NSC828583), SN-011 (NSC837082), adavosertib (NSC754352), prexasertib (NSC758257), carboplatin (NSC241240) and oxaliplatin (NSC266046), were obtained from the National Cancer Institute (NCI) Developmental Therapeutics Program Chemical Repository (21). The FDA-approved anticancer drug set is available from the Developmental Therapeutics Program at https://dtp.cancer.gov/organization/dscb/obtaining/. […] The stock solutions were prepared in dimethyl sulfoxide (DMSO, Sigma-Aldrich, St. Louis, MO, cat. D2650), except for the platinum compounds which were prepared in saline (Quality Biological, Gaithersburg, MD, cat. 114-055-101), at 800-fold the tested concentration and stored at -70 degrees C prior to their use. All drugs and investigational agents were tested over a range starting from a high concentration at or near the clinical Cmax and decreasing in half-log increments. If the clinical Cmax for an agent had not been determined, the highest concentration tested was 10 microM, except for SN-38, which was tested at a high concentration of 1 microM.
Cell Culture. All cells were maintained in an incubator at 37 degrees C and 5% CO2 with 95% humidity. The PDC lines were cultured according to standard operating procedures established by the NCI PDMR (https://pdmr.cancer.gov). Table 3 of the manuscript, lists the cell lines along with the number of the three cell types plated to form the mct-spheroids and media for tumor cell growth. After thawing, all PDC lines, except 997537-175-T-J1-PDC and 415267-285-R-J2-PDC, were cultured in Matrigel-coated flasks prepared with a working solution of 1X Ham's F-12 nutrient mix, without supplementation (Thermo Fisher Scientific, cat. 11765054), 100 U/mL penicillin-streptomycin (Thermo Fisher Scientific, cat. 15140122), and 2.5% Matrigel (Corning Inc., Corning, NY, cat. 354248) for the first three passages. The two PDC lines 997537-175-T-J1-PDC and 415267-285-R-J2-PDC were cultured on uncoated flasks. The 857933-349-R-J2-PDC line was cultured in 6C/Colon 1B media containing advanced DMEM/F-12 (Thermo Fisher Scientific, cat. 12634028), 10 mM HEPES (Thermo Fisher Scientific, cat. 15630080), 1X GlutaMAX supplement (Thermo Fisher Scientific, cat. 35050061), 0.1 mg/mL primocin (InvivoGen, San Diego, CA, cat. ant-pm-2), 10% defined fetal bovine serum, heat inactivated (HyClone Laboratories Inc., Logan, UT, cat. SH30070.03HI), 50% L-WRN conditioned media (ATCC, cat. CRL-3276), 1.25 mM N-Acetyl-L-cysteine (Sigma-Aldrich, cat. A9165), 10 mM nicotinamide (Sigma-Aldrich, cat. N0636), 1X B-27 supplement (Thermo Fisher Scientific, cat. 17504044), 1X N-2 supplement (Thermo Fisher Scientific, cat. […]

The mark [1] stands for this setting: curve of first compound, second compound 0.0316 µM.
The mark [2] stands for this setting: curve of first compound, second compound 0.1 µM.
Setting [3] is: curve of first compound, second compound 0.316 µM.
The mark [4] stands for this setting: curve of first compound, second compound 1 µM.
The mark [5] stands for this setting: curve of first compound, second compound 3.16 µM.
Setting [6] is: curve of first compound, second compound 10 µM.
Setting [7] is: second compound 0.0316 µM, first compound 0.0316 µM.
[8] abbreviates: second compound 0.0316 µM, first compound 0.1 µM.
The mark [9] stands for this setting: second compound 0.0316 µM, first compound 0.316 µM.
Setting [10] is: second compound 0.0316 µM, first compound 1 µM.
Where [11] appears, read: second compound 0.1 µM, first compound 0.0316 µM.
[12] abbreviates: second compound 0.1 µM, first compound 0.1 µM.
Where [13] appears, read: second compound 0.1 µM, first compound 0.316 µM.
The mark [14] stands for this setting: second compound 0.1 µM, first compound 1 µM.
The mark [15] stands for this setting: second compound 0.316 µM, first compound 0.0316 µM.
Setting [16] is: second compound 0.316 µM, first compound 0.1 µM.
The mark [17] stands for this setting: second compound 0.316 µM, first compound 0.316 µM.
[18] abbreviates: second compound 0.316 µM, first compound 1 µM.
The mark [19] stands for this setting: second compound 1 µM, first compound 0.0316 µM.
[20] abbreviates: second compound 1 µM, first compound 0.1 µM.
[21] abbreviates: second compound 1 µM, first compound 0.316 µM.
Setting [22] is: second compound 1 µM, first compound 1 µM.
Where [23] appears, read: second compound 3.16 µM, first compound 0.0316 µM.
Where [24] appears, read: second compound 3.16 µM, first compound 0.1 µM.
The mark [25] stands for this setting: second compound 3.16 µM, first compound 0.316 µM.
[26] abbreviates: second compound 3.16 µM, first compound 1 µM.
[27] abbreviates: second compound 10 µM, first compound 0.0316 µM.
The mark [28] stands for this setting: second compound 10 µM, first compound 0.1 µM.
Where [29] appears, read: second compound 10 µM, first compound 0.316 µM.
The mark [30] stands for this setting: second compound 10 µM, first compound 1 µM.
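Note: spheroids exposed to compounds for seven days before readout.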
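Throughout, for viability, T/C: 100% = DMSO vehicle control viability.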

For the molecule `Nc1ccn(C2OC(CO)C(O)C2(F)F)c(=O)n1` (configuration not stated) + COC1C(OC(N)=O)C(O)C(Oc2ccc3c(O)c(NC(=O)c4ccc(O)c(CC=C(C)C)c4)c(=O)oc3c2C)OC1(C)C, the IC50 is less than 31.6 nM under setting [1]; less than 31.6 nM under setting [2]; less than 31.6 nM under setting [3]; less than 31.6 nM under setting [4]; less than 31.6 nM under setting [5]; less than 31.6 nM under setting [6]. Besides, the viability, T/C was 25.9% under setting [7]; 30% under setting [8]; 35.5% under setting [9]; 36.7% under setting [10]; 28.9% (second compound 0.0316 µM, first compound 3.16 µM); 36.5% (second compound 0.0316 µM, first compound 10 µM). In addition, the viability, T/C is 31% under setting [11]; 34.8% under setting [12]; 47% under setting [13]; 39% under setting [14]; 38.2% (second compound 0.1 µM, first compound 3.16 µM); 31.2% (second compound 0.1 µM, first compound 10 µM). The viability, T/C is, setting by setting: under setting [15], 25.5%; under setting [16], 35.1%; under setting [17], 36.9%; under setting [18], 34.3%; (second compound 0.316 µM, first compound 3.16 µM) 40.6%; (second compound 0.316 µM, first compound 10 µM) 32.1%. Further, the viability, T/C by setting is: under setting [19], 28.8%; under setting [20], 37.7%; under setting [21], 42.1%; under setting [22], 41.7%; (second compound 1 µM, first compound 3.16 µM) 31.1%; (second compound 1 µM, first compound 10 µM) 26.9%. Further, the viability, T/C was 30.6% under setting [23]; 32.6% under setting [24]; 39.9% under setting [25]; 33.5% under setting [26]; 35.2% (second compound 3.16 µM, first compound 3.16 µM); 28% (second compound 3.16 µM, first compound 10 µM). Also, the viability, T/C under setting [27] was 29.3%; the viability, T/C under setting [28] was 31.3%; the viability, T/C under setting [29] is 34.9%; the viability, T/C under setting [30] is 35%; the viability, T/C (second compound 10 µM, first compound 3.16 µM) is 32.3%; the viability, T/C (second compound 10 µM, first compound 10 µM) was 32.1%.

`CC(C)n1c(=O)n(C)c2cnc3cc(F)c(-c4ccc(OCCCN5CCCCC5)nc4)cc3c21`: the viability, T/C runs as follows: (compound 0.0316 µM) 96% and 105% and 102%; (compound 0.1 µM) 90.3% and 101% and 98.8%; (compound 0.316 µM) 112% and 103% and 111%; (compound 1 µM) 106% and 108% and 94.5%; (compound 3.16 µM) 87.5% and 84% and 102%; (compound 10 µM) 52.9% and 72% and 69.1%. For the same molecule, the IC50 (curve of compound) was greater than 10000 nM.

Regarding `COc1cccc(OCCCN)c1-c1cc(Nc2cnc(C#N)cn2)n[nH]1`, the viability, T/C is, setting by setting: (compound 0.00316 µM) 98.3% and 89.8% and 106%; (compound 0.01 µM) 69.9% and 82.7% and 93.2%; (compound 0.0316 µM) 52.6% and 55.5% and 49%; (compound 0.1 µM) 40.9% and 44.4% and 45.3%; (compound 0.316 µM) 34.2% and 34.5% and 41.7%; (compound 1 µM) 25% and 30.4% and 35.5%. Moreover, the IC50 (curve of compound) was 40.6 nM and 57 nM and 31.2 nM.

On to `CCc1c2c(nc3ccc(O)cc13)-c1cc3c(c(=O)n1C2)COC(=O)[C@]3(O)CC`, for which the viability, T/C is 60.2% and 77.9% and 72.8% (compound 0.00316 µM); 56.4% and 60.8% and 57.2% (compound 0.01 µM); 59.9% and 65.7% and 60.6% (compound 0.0316 µM); 48.4% and 64.6% and 47.4% (compound 0.1 µM); 33.3% and 41.8% and 31.2% (compound 0.316 µM); 18.5% and 31.8% and 23.8% (compound 1 µM). In addition, the IC50 (curve of compound) was 95 nM and 220 nM and 63.1 nM.

As to `O=C(c1cc(Cc2n[nH]c(=O)c3ccccc23)ccc1F)N1CCN(C(=O)C2CC2)CC1`, the viability, T/C runs as follows: (compound 0.0316 µM) 88.1% and 93% and 83.1%; (compound 0.1 µM) 82.1% and 100% and 97.3%; (compound 0.316 µM) 92.3% and 104% and 81.8%; (compound 1 µM) 87.4% and 87.5% and 87.9%; (compound 3.16 µM) 91% and 82.4% and 88.4%; (compound 10 µM) 58.5% and 61.9% and 69.8%. Moreover, the IC50 (curve of compound) is greater than 10000 nM.

As to `C=CCn1c(=O)c2cnc(Nc3ccc(N4CCN(C)CC4)cc3)nc2n1-c1cccc(C(C)(C)O)n1` + Cc1cccc(N(C)C(=O)C2C(O)CCN2c2nc(C)cc(C(F)(F)F)c2C#N)c1, the IC50 is 938 nM under setting [1]; greater than 1000 nM under setting [2]; 896 nM under setting [3]; greater than 1000 nM under setting [4]; greater than 1000 nM under setting [5]; greater than 1000 nM under setting [6]. The viability, T/C by setting is: (second compound 0.0316 µM, first compound 0.00316 µM) 106%; (second compound 0.0316 µM, first compound 0.01 µM) 101%; under setting [7], 96.7%; under setting [8], 86.6%; under setting [9], 92.7%; under setting [10], 47.1%. Moreover, the viability, T/C was 93.5% (second compound 0.1 µM, first compound 0.00316 µM); 93.3% (second compound 0.1 µM, first compound 0.01 µM); 95.4% under setting [11]; 109% under setting [12]; 86.2% under setting [13]; 53% under setting [14]. The viability, T/C was 88.2% (second compound 0.316 µM, first compound 0.00316 µM); 99.3% (second compound 0.316 µM, first compound 0.01 µM); 102% under setting [15]; 98.8% under setting [16]; 90.8% under setting [17]; 45.5% under setting [18]. Further, the viability, T/C runs as follows: (second compound 1 µM, first compound 0.00316 µM) 97.7%; (second compound 1 µM, first compound 0.01 µM) 99%; under setting [19], 108%; under setting [20], 112%; under setting [21], 81.9%; under setting [22], 53.2%. Also, the viability, T/C (second compound 3.16 µM, first compound 0.00316 µM) is 104%; the viability, T/C (second compound 3.16 µM, first compound 0.01 µM) was 108%; the viability, T/C under setting [23] was 97.6%; the viability, T/C under setting [24] is 93.6%; the viability, T/C under setting [25] was 100%; the viability, T/C under setting [26] was 53.4%. Moreover, the viability, T/C is 102% (second compound 10 µM, first compound 0.00316 µM); 108% (second compound 10 µM, first compound 0.01 µM); 119% under setting [27]; 99% under setting [28]; 107% under setting [29]; 54.3% under setting [30].
